Measured values as given in patent US10588316B2 (priority 2015, dated 2020).
Several values for one entry are separate records, joined by “and”; a condition that tells them apart may be missing. Identical values can stand only once. Like-named read-outs stand apart in the source and are kept apart here.

Assays:
powdery mildew fungus = tested on: powdery mildew fungus; set-up: species or system wheat; conditions: in vivo
powdery mildew [1] = type: in vivo, wheat; conditions: in vivo
wheat scab [2] = type: in vivo
leaf blight [3] = type: in vivo, wheat; conditions: in vivo
rust [4] = tested on: rust; set-up: species or system barley; conditions: in vivo
[5] = type: in vivo, wheat; conditions: in vivo
rust [6] = tested on: rust; set-up: species or system wheat; conditions: in vivo
wheat scab [7] = type: in vivo; conditions: Preparation 100 g/mu; Jinggangmycin 20, Tebuconazole 0 g ai. agent/mu
[8] = tested on: Fusarium graminearum and Fusarium asiaticum; assay: organism not typed; type: cell-based; conditions: read-out: inhibitory effect on the growth of the two types of Fusaria
powdery mildew [9] = type: in vivo, wheat; conditions: in vivo; remark: listed apart in the source
rust [10] = type: in vivo, wheat; conditions: in vivo
[11] = tested on: carbendazim-resistant Fusarium asiaticum; assay: microbe, parasite or virus in culture; type: cell-based; conditions: for inhibition at 1 µg/mL / inhibition at 10 µg/mL / inhibition at 100 µg/mL / inhibition at 1000 µg/mL / inhibition at 10000 µg/mL: Fusarium asiaticum, read-out: DON Biosynthesis Inhibition Rate
rust [12] = type: in vivo, wheat; conditions: in vivo; remark: listed apart in the source
wheat scab [13] = type: in vivo; remark: listed apart in the source
wheat scab [14] = type: in vivo; conditions: Preparation 100 (mL/mu); Jinggangmycin 20, Tebuconazole 0 g ai. agent/mu
rust [15] = type: in vivo, wheat; conditions: in vivo; remark: listed apart in the source
leaf blight [16] = tested on: leaf blight; set-up: species or system wheat; conditions: in vivo
Fusarium graminearum = assay: microbe, parasite or virus in culture; type: cell-based; conditions: for Average Fungal Colony Diameter F.g: sensitive strains
wheat scab [17] = type: in vivo; remark: listed apart in the source
leaf blight [18] = type: in vivo, wheat; conditions: in vivo; remark: listed apart in the source
powdery mildew [19] = type: in vivo, wheat; conditions: in vivo; remark: listed apart in the source
powdery mildew [20] = type: in vivo, wheat; conditions: in vivo; remark: listed apart in the source
Fusarium asiaticum = assay: microbe, parasite or virus in culture; type: cell-based
wheat scab [21] = type: in vivo; remark: listed apart in the source
leaf rust fungus = tested on: leaf rust fungus; set-up: species or system wheat; conditions: in vivo
rust [22] = type: in vivo, wheat; conditions: in vivo; remark: listed apart in the source
[23] = type: in vivo, wheat; conditions: in vivo; remark: listed apart in the source
powdery mildew [24] = type: in vivo, wheat; conditions: in vivo; remark: listed apart in the source
leaf blight [25] = type: in vivo, wheat; conditions: in vivo; remark: listed apart in the source
Tri5 gene = type: cell-based, Fusarium asiaticum

SMILES: OCC1=CC(N[C@H]2C[C@H](CO)[C@@H](OC3O[C@H](CO)[C@@H](O)[C@H](O)[C@H]3O)C(O)[C@H]2O)[C@H](O)[C@@H](O)C1O (stereo partly shown) [Jinggangmycin, jinggangmycin A]
- Incidence Prevention Effect % Powdery Mildew (powdery mildew fungus): 0% and 6.5%
- Disease Index Prevention Effect % Powdery Mildew (powdery mildew [1]): 8.5% and 0%
- Disease Index Prevention Effect % Head Blight (wheat scab [2]; Preparation 30 g/mu, Jinggangmycin 6 g ai. agent/mu): 7.4%
- Disease Index Prevention Effect % Head Blight (wheat scab [2]; Preparation 45 g/mu, Jinggangmycin 9 g ai. agent/mu): 9.4%
- Disease Index Prevention Effect % Head Blight (wheat scab [2]; Preparation 60 g/mu, Jinggangmycin 12 g ai. agent/mu): 10.2%
- Disease Index Prevention Effect % Head Blight (wheat scab [2]; Preparation 75 g/mu, Jinggangmycin 15 g ai. agent/mu): 34.2%
- Disease Index Prevention Effect % Leaf Blight (leaf blight [3]): 7.8%
- Disease Index Prevention Effect % Rust (rust [4]): 0%
- Thousand Kernel Weight [5]: 38.5 g and 40.1 g and 37.8 g and 41.5 g
- Disease Index Prevention Effect % Rust (rust [6]): 5.1% and 3.6% and 0%
- Disease Index Prevention Effect % Head Blight (wheat scab [7]): 40.2%
- inhibition at 50 µg/mL [8]: 6.5 to 7.8%
- Disease Index Prevention Effect % Powdery Mildew (powdery mildew [9]): 8.6% and 6.6% and 3% and 1.8%
- Disease Index Prevention Effect % Rust (rust [10]): 6.5%
- inhibition at 1 µg/mL ([11]; 168 h): 28.6%
- inhibition at 10 µg/mL ([11]; 168 h): 35.5%
- inhibition at 100 µg/mL ([11]; 168 h): 45.2%
- inhibition at 1000 µg/mL ([11]; 168 h): 65.5%
- inhibition at 10000 µg/mL ([11]; 168 h): 75.9%
- inhibition at 1 µg/mL ([11]; 336 h): 1.7%
- inhibition at 10 µg/mL ([11]; 336 h): 7.87%
- inhibition at 100 µg/mL ([11]; 336 h): 29.9%
- inhibition at 1000 µg/mL ([11]; 336 h): 57%
- inhibition at 10000 µg/mL ([11]; 336 h): 75.4%
- Toxin Production Capability of Hyphae ([11]; Jinggangmycin 1 μg/ml, 7 days of culture): 62.82 μgDON/g by dry weight of hyphae
- Toxin Production Capability of Hyphae ([11]; Jinggangmycin 1 μg/ml, 14 days of culture): 51.43 μgDON/g by dry weight of hyphae
- Toxin Production Capability of Hyphae ([11]; Jinggangmycin 10 μg/ml, 7 days of culture): 56.76 μgDON/g by dry weight of hyphae
- Toxin Production Capability of Hyphae ([11]; Jinggangmycin 10 μg/ml, 14 days of culture): 48.20 μgDON/g by dry weight of hyphae
- Toxin Production Capability of Hyphae ([11]; Jinggangmycin 100 μg/ml, 7 days of culture): 48.23 μgDON/g by dry weight of hyphae
- Toxin Production Capability of Hyphae ([11]; Jinggangmycin 100 μg/ml, 14 days of culture): 36.68 μgDON/g by dry weight of hyphae
- Toxin Production Capability of Hyphae ([11]; Jinggangmycin 1000 μg/ml, 7 days of culture): 30.35 μgDON/g by dry weight of hyphae
- Toxin Production Capability of Hyphae ([11]; Jinggangmycin 1000 μg/ml, 14 days of culture): 22.52 μgDON/g by dry weight of hyphae
- Toxin Production Capability of Hyphae ([11]; Jinggangmycin 10000 μg/ml, 7 days of culture): 21.23 μgDON/g by dry weight of hyphae
- Toxin Production Capability of Hyphae ([11]; Jinggangmycin 10000 μg/ml, 14 days of culture): 12.85 μgDON/g by dry weight of hyphae
- Disease Index Prevention Effect % Rust (rust [12]): 6.5%
- Disease Index Prevention Effect % Head Blight (wheat scab [13]; Preparation 15 g/mu, Jinggangmycin 3 g ai. agent/mu): 0%
- Disease Index Prevention Effect % Head Blight (wheat scab [13]; Preparation 37.5 g/mu, Jinggangmycin 7.5 g ai. agent/mu): 24.2%
- Disease Index Prevention Effect % Head Blight (wheat scab [13]; Preparation 50 g/mu, Jinggangmycin 10 g ai. agent/mu): 32.4%
- Disease Index Prevention Effect % Head Blight (wheat scab [14]): 34.2%
- Disease Index Prevention Effect % Rust (rust [15]): 8.9% and 0%
- Disease Index Prevention Effect % Leaf Blight (leaf blight [16]): 8.5% and 7.9% and 0%
- inhibition at 50 µg/mL (Fusarium graminearum; Fusarium graminearum, read-out: Growth Inhibition Rate F.g): 6.6%
- Average Fungal Colony Diameter F.g (Fusarium graminearum; Jinggangmycin A 0.1 μg/mL): 76.3 mm
- Average Fungal Colony Diameter F.g (Fusarium graminearum; Jinggangmycin A 1.0 μg/mL): 76.2 mm
- Average Fungal Colony Diameter F.g (Fusarium graminearum; Jinggangmycin A 10.0 μg/mL): 75.4 mm
- Average Fungal Colony Diameter F.g (Fusarium graminearum; Jinggangmycin A 50.0 μg/mL): 70.3 mm
- Disease Index Prevention Effect % Head Blight (wheat scab [17]; Jinggangmycin 6 g ai. agent/mu): 0%
- Disease Index Prevention Effect % Head Blight (wheat scab [17]; Jinggangmycin 9 g ai. agent/mu): 17.6%
- Disease Index Prevention Effect % Head Blight (wheat scab [17]; Jinggangmycin 15 g ai. agent/mu): 28.3%
- Disease Index Prevention Effect % Head Blight (wheat scab [17]; Jinggangmycin 21 g ai. agent/mu): 35.4%
- Disease Index Prevention Effect % Leaf Blight (leaf blight [18]): 7.8%
- Disease Index Prevention Effect % Powdery Mildew (powdery mildew [19]): 10.6%
- Disease Index Prevention Effect % Powdery Mildew (powdery mildew [20]): 10.6%
- Average Fungal Colony Diameter F.a (Fusarium asiaticum): 76.3 mm and 75.6 mm and 69.4 mm
- inhibition at 50 µg/mL (Fusarium asiaticum; Fusarium asiaticum, read-out: Growth Inhibition Rate F.a): 7.8%
- Disease Index Prevention Effect % Head Blight (wheat scab [21]; Jinggangmycin 0.5 g ai. agent/mu): 0.0%
- Disease Index Prevention Effect % Head Blight (wheat scab [21]; Jinggangmycin 1.0 g ai. agent/mu): 0.0%
- Disease Index Prevention Effect % Head Blight (wheat scab [21]; Jinggangmycin 1.3 g ai. agent/mu): 0.0%
- Disease Index Prevention Effect % Head Blight (wheat scab [21]; Jinggangmycin 2.5 g ai. agent/mu): 0.0%
- Disease Index Prevention Effect % Head Blight (wheat scab [21]; Jinggangmycin 5.0 g ai. agent/mu): 0.0%
- Disease Index Prevention Effect % Head Blight (wheat scab [21]; Jinggangmycin 8.0 g ai. agent/mu): 17.9%
- Disease Index Prevention Effect % Head Blight (wheat scab [21]; Jinggangmycin 14.0 g ai. agent/mu): 23.7%
- Disease Index Prevention Effect % Head Blight (wheat scab [21]; Jinggangmycin 16.0 g ai. agent/mu): 27.8%
- Disease Index Prevention Effect % Head Blight (wheat scab [21]; Jinggangmycin 28.0 g ai. agent/mu): 29.6%
- Incidence Prevention Effect % Rust (leaf rust fungus): 0% and 4.5%
- Disease Index Prevention Effect % Rust (rust [22]): 6.8% and 6.5% and 0%
- Thousand Kernel Weight [23]: 37.5 g and 38.6 g and 37.6 g
- Disease Index Prevention Effect % Powdery Mildew (powdery mildew [24]): 7.3% and 4.4% and 4.5% and 0%
- Disease Index Prevention Effect % Leaf Blight (leaf blight [25]): 8.6% and 8.8% and 5.8%
- Rate of Inhibition on Relative Expression Level of Tri5 Gene (Tri5 gene): 59% and 66% and 84% and 87% and 90%
